According to ChEMBL document CHEMBL1833849, “Novel 4-azasteroidal N-glycoside analogues bearing sugar-like D ring: synthesis and anticancer activities” (2011):

How the values were obtained:
Assay type in all cases: functional
[1] = system: SK-N-SH; experiment: Cytotoxicity against human SK-N-SH cells assessed as growth inhibition after 3 days by MTT assay; conditions: 72 h
[2] = system: PC-3; experiment: Cytotoxicity against human PC3 cells assessed as growth inhibition after 3 days by MTT assay; conditions: PC-3, 72 h
[3] = system: MCF7; experiment: Cytotoxicity against human MCF7 cells assessed as growth inhibition after 3 days by MTT assay; conditions: MCF7, 72 h
[4] = system: HeLa; experiment: Cytotoxicity against human HeLa cells assessed as growth inhibition after 3 days by MTT assay; conditions: 72 h

Structure (SMILES)	GI50 [1]	GI50 [2]	GI50 [3]	GI50 [4]
C[C@]12CCC(=O)N[C@@H]1CC[C@@H]1[C@@H]2CC[C@]2(C)O[C@H](n3cnc4c(Cl)ncnc43)CC[C@@H]12	103 µM	3.25 µM	20.9 µM	17.7 µM
C[C@]12CCC(=O)N[C@@H]1CC[C@@H]1[C@@H]2CC[C@]2(C)O[C@H](n3cnc4c(Cl)nc(Cl)nc43)CC[C@@H]12	34.2 µM	11.2 µM	34.2 µM	7.57 µM
C[C@]12CCC(=O)N[C@@H]1CC[C@@H]1[C@@H]2CC[C@]2(C)O[C@H](n3cnc4c(Cl)nc(F)nc43)CC[C@@H]12	10.7 µM	3.76 µM	16.7 µM	13.3 µM
C[C@]12CCC(=O)N[C@@H]1CC[C@@H]1[C@@H]2CC[C@]2(C)O[C@H](n3cnc4c(NCc5ccccc5)ncnc43)CC[C@@H]12	133 µM	20.6 µM	136 µM	129 µM
CC(=O)O[C@H]1C(=O)[C@@]2(C)[C@H]([C@H](OC(=O)c3ccccc3)[C@]3(O)C[C@H](OC(=O)[C@H](O)[C@@H](NC(=O)c4ccccc4)c4ccccc4)C(C)=C1C3(C)C)[C@]1(OC(C)=O)CO[C@@H]1C[C@@H]2O [PACLITAXEL]	2.19 µM	1.46 µM	1.07 µM	2.82 µM
